According to patent US7687453B2, “Method for administering insulin to the buccal region” (Generex Pharmaceuticals Incorporated, priority 1998, dated 2010):

Columns and labels:
Format in all cases: in vivo, human
[1] = test system: blood glucose; test: Blood glucose, oral mixed micellar insulin vs injection, fasted Type II diabetic volunteers (Example 8); details: injection 10 units, avg of 10 fasted Type II diabetics
Description: In one set of tests, ten Type II diabetic human volunteers who took insulin, by injection three times a day, were studied. In another set of tests the volunteers were tested with insulin, faken orally. The volunteers fasted from midnight prior to the test, with no food being taken during the 4 hour study. On the first day, the volunteers received 10 units insulin by injection (regular fast acting insulin, available from Eli Lilly). On the second day, the volunteers received 30 units (1 mL volume per drop, approximately 20 drops) of the above-prepared oral insulin (3 times the injection dose). In both tests, blood glucose levels were monitored every 15 minutes by Bayer's Glucometer Elite.

[2] = test system: blood glucose; test: Blood glucose, oral mixed micellar insulin (bacitracin, evening primrose oil) vs injection, fasted volunteers (Example 14); details: injection 10 units, avg of six fasted volunteers
Description: Six human volunteers were studied. The volunteers fasted from midnight prior to the test, with no food being taken during the 4 hour study. On the first day, the volunteers received 10 units insulin by injection (regular fast acting insulin, available from Eli Lilly). On the second day, the volunteers received 20 units of the above-prepared oral insulin (twice the injection dose). In both tests, blood glucose levels were monitored at intervals by Bayer's Glucometer Elite.

[3] = test system: blood glucose; test: Blood glucose, nasal mixed micellar insulin vs injection (Example 10); details: injection 10 units, avg of ten volunteers
Description: The formulation of Example 9 was tested in a manner similar to that indicated in Example 8 except that the formulation of the present invention was administered nasally.
On the first day, the ten volunteers each received 10 units insulin injection (regular fast acting, Eli Lilly). On the second day, the volunteers received 20 units of the “oral” insulin of Example 9 (2 times the injection dose). The “oral” insulin was administered as drops (0.4 mL volume per drop, approximately 4 large drops in total, i.e. two drops in each nostril).

[4] = test system: meal glucose; test: Meal glucose, chewable gum insulin vs injection, Type II diabetic volunteers (Example 13); details: injection 10 units, avg of five Type II diabetics, meal 30 min after dosing
Description: The mixed micellar formulation in chewable stick form was tested in diabetic volunteers under controlled conditions to determine the oral insulin effect on meal glucose when compared to injected insulin.
(§1) In one set of tests, five Type II diabetic human volunteers who took insulin, by injection three times a day, were studied. In another set of tests the volunteers were tested with the chewable gum insulin, taken orally. The volunteers fasted from midnight prior to the tests, with food being taken 30 minutes after dosing. The meals were standard Sastacal 240 mL liquid diet approved by the Diabetic Society, containing 400 calories.
(§2) On the first day, the volunteers received 10 units insulin by injection (regular fast acting insulin, available from Eli Lilly). On the second day, the volunteers received 30 units of the above-prepared chewable gum oral insulin (3 times the injection dose). in both tests, blood glucose levels were monitored every 15 minutes by Bayer's Glucometer Elite.

[5] = test system: meal glucose; test: Meal glucose, oral mixed micellar insulin vs injection, healthy non-diabetic volunteers (Example 11); details: injection 10 units, ten healthy volunteers, meal 30 min after dosing
Description: The mixed micellar formulation of Example 9 was tested in healthy volunteers under controlled conditions to determine the oral insulin effect on meal glucose when compared to injected insulin.
as §1, with “ten healthy non-diabetic” for “five Type II diabetic”, “were tested with” for “who took”, “injection.” for “injection three times a day, were studied.”, “with” for “with the chewable gum”
as §2, with “above-prepared” for “above-prepared chewable gum”, “dose). In” for “dose). in”

regular fast acting insulin: regular fast acting insulin, available from Eli Lilly, given by injection (10 units)
Blood glucose levels ([1]; 0 min): 6.8 mmol/L
Blood glucose levels ([1]; 15 min): 6.9 mmol/L
Blood glucose levels ([1]; 30 min): 6.1 mmol/L
Blood glucose levels ([1]; 45 min): 5.8 mmol/L
Blood glucose levels ([1]; 60 min): 5.8 mmol/L
Blood glucose levels ([1]; 75 min): 5.8 mmol/L
Blood glucose levels ([1]; 90 min): 5.4 mmol/L
Blood glucose levels ([1]; 105 min): 5.4 mmol/L
Blood glucose levels ([1]; 120 min): 5.2 mmol/L
Blood glucose levels ([1]; 135 min): 5.1 mmol/L
Blood glucose levels ([1]; 150 min): 4.9 mmol/L
Blood glucose levels ([1]; 165 min): 4.9 mmol/L
Blood glucose levels ([1]; 180 min): 4.8 mmol/L
Blood glucose levels ([1]; 195 min): 4.8 mmol/L
Blood glucose levels ([1]; 210 min): 5.2 mmol/L
Blood glucose levels ([1]; 225 min): 5.2 mmol/L
Blood glucose levels ([1]; 240 min): 5.4 mmol/L
Blood glucose levels ([2]; 0 min): 7.9 mmol/L
Blood glucose levels ([2]; 15 min): 7.9 mmol/L
Blood glucose levels ([2]; 30 min): 8.2 mmol/L
Blood glucose levels ([2]; 45 min): 8.3 mmol/L
Blood glucose levels ([2]; 60 min): 7.6 mmol/L
Blood glucose levels ([2]; 90 min): 6.2 mmol/L
Blood glucose levels ([2]; 120 min): 5.2 mmol/L
Blood glucose levels ([2]; 150 min): 4.6 mmol/L
Blood glucose levels ([2]; 180 min): 3.9 mmol/L
Blood glucose levels ([2]; 210 min): 4.4 mmol/L
Blood glucose levels ([2]; 240 min): 5.2 mmol/L
Blood glucose levels ([3]; 0 min): 6.8 mmol/L
Blood glucose levels ([3]; 15 min): 7.0 mmol/L
Blood glucose levels ([3]; 30 min): 6.8 mmol/L
Blood glucose levels ([3]; 45 min): 6.3 mmol/L
Blood glucose levels ([3]; 60 min): 6.3 mmol/L
Blood glucose levels ([3]; 75 min): 5.8 mmol/L
Blood glucose levels ([3]; 90 min): 5.2 mmol/L
Blood glucose levels ([3]; 105 min): 5.0 mmol/L
Blood glucose levels ([3]; 120 min): 5.2 mmol/L
Blood glucose levels ([3]; 135 min): 4.2 mmol/L
Blood glucose levels ([3]; 150 min): 4.6 mmol/L
Blood glucose levels ([3]; 165 min): 4.0 mmol/L
Blood glucose levels ([3]; 180 min): 4.1 mmol/L
Blood glucose levels ([3]; 195 min): 4.3 mmol/L
Blood glucose levels ([3]; 210 min): 4.5 mmol/L
Blood glucose levels ([3]; 225 min): 4.7 mmol/L
Blood glucose levels ([3]; 240 min): 5.0 mmol/L
Blood glucose levels ([4]; 0 min): 8.8 mmol/L
Blood glucose levels ([4]; 15 min): 8.2 mmol/L
Blood glucose levels ([4]; 30 min): 8.0 mmol/L
Blood glucose levels ([4]; 45 min): 8.4 mmol/L
Blood glucose levels ([4]; 60 min): 9.2 mmol/L
Blood glucose levels ([4]; 75 min): 10.3 mmol/L
Blood glucose levels ([4]; 90 min): 11.8 mmol/L
Blood glucose levels ([4]; 105 min): 11.6 mmol/L
Blood glucose levels ([4]; 120 min): 11.0 mmol/L
Blood glucose levels ([4]; 135 min): 10.2 mmol/L
Blood glucose levels ([4]; 150 min): 9.6 mmol/L
Blood glucose levels ([4]; 165 min): 9.5 mmol/L
Blood glucose levels ([4]; 180 min): 9.1 mmol/L
Blood glucose levels ([4]; 195 min): 8.7 mmol/L
Blood glucose levels ([4]; 210 min): 8.2 mmol/L
Blood glucose levels ([4]; 225 min): 8.0 mmol/L
Blood glucose levels ([4]; 240 min): 7.5 mmol/L
Blood glucose levels ([5]; 0 min): 5.5 mmol/L
Blood glucose levels ([5]; 15 min): 5.6 mmol/L
Blood glucose levels ([5]; 30 min): 5.4 mmol/L
Blood glucose levels ([5]; 45 min): 5.4 mmol/L
Blood glucose levels ([5]; 60 min): 5.6 mmol/L
Blood glucose levels ([5]; 75 min): 6.6 mmol/L
Blood glucose levels ([5]; 90 min): 7.0 mmol/L
Blood glucose levels ([5]; 105 min): 5.9 mmol/L
Blood glucose levels ([5]; 120 min): 5.6 mmol/L
Blood glucose levels ([5]; 135 min): 5.1 mmol/L
Blood glucose levels ([5]; 150 min): 4.8 mmol/L
Blood glucose levels ([5]; 165 min): 4.6 mmol/L
Blood glucose levels ([5]; 180 min): 4.3 mmol/L
